In patent US20210283099A1, “CDC7 KINASE INHIBITORS AND USES THEREOF” (SLOAN-KETTERING INSTITUTE FOR CANCER RESEARCH, priority 2010, published 2021):

Key:
Test in all cases: Cytotoxicity assay (Alamar blue)
Format in all cases: cell-based
MESO47 = settings: human mesothelioma, WT-1 overexpression
Experimental: (§1) FIGS. 16A-16B. Granaticin A and Granaticin B inhibit multiple tumor types: The indicated cell lines and primary patient samples were tested against the compounds listed in standard cytotoxicity assays (12 point dose response using Alamar blue reduction as an indicator of cell viability). Assays were done in triplicate and IC50 determinations were run in 12-point serial dilutions from […] to 5 nM. […] These include ras and EGFR gatekeeper mutation containing cell lines in addition to p53 mutant cell lines and other known chemotherapy resistant cell lines. Specifically, this included multi-drug resistance phenotype (MDR-overexpressing) cell lines from multiple hematologic and solid tumor cell lines. Table 1 highlights a series of primary patient leukemia samples-both acute and chronic and treatment naïve and refractory tested against granaticins A and B and Derivatives 1 and 2 (see Examples).

HCC827 = settings: human lung adenocarcinoma, DelE746-A750 EGFR mutation
Experimental: as §1

DOGO = settings: Homo sapiens, Patient sample of CLL with trisomy of chromosome 12 and unmutated Ig heavy chain locus
Experimental: as §1

H820 = settings: NCI-H820, human lung adenocarcinoma, Del E746-E749 and T790M EGFR mutations
Experimental: as §1

H2030 = settings: NCI-H2030, human lung adenocarcinoma, wild-type EGFR, G12C KRAS mutation, G262V P53 mutation, PTEN null
Experimental: as §1

GLHU = settings: Homo sapiens, Patient sample of Chronic Myelogenous leukemia
Experimental: as §1

RH30 = settings: Human rhabdomyosarcoma, P53 mutation
Experimental: as §1

HPLD1 = settings: Immortalized human bronchiolar epithelial cell with SV-40 Large T antigen
Experimental: as §1

H11-18 = settings: Human lung adenocarcinoma, L858R EGFR mutation
Experimental: as §1

H2444 = settings: NCI-H2444, human lung adenocarcinoma, G12V KRAS mutation
Experimental: as §1

HTB15 = settings: Human Glioblastoma (U-118MG)
Experimental: as §1

A549 = settings: Human lung adenocarcinoma, G12S KRAS mutation
Experimental: as §1

MIHA = settings: Homo sapiens, Patient sample of relapsed/refractory acute biphenotypic leukemia (refractory to allogeneic bone marrow transplant)
Experimental: as §1

SOPA = settings: Homo sapiens, Patient sample of secondary AML with chromsome 11q23 abnormality
Experimental: as §1

SW1736 = settings: SW-1736, Human anaplastic thyroid carcinoma with BRAF V600E mutation
Experimental: as §1

H1650 = settings: NCI-H1650, Human lung adenocarcinoma, DelE746-A750 EGFR mutation, wild-type RAS, PTEN null
Experimental: as §1

H1734 = settings: NCI-H1734, Human lung adenocarcinoma, G13C KRAS mutation
Experimental: as §1

MAWI = settings: Homo sapiens, Patient sample of relpased/refractory AML with normal cytogenetics
Experimental: as §1

RORI = settings: Homo sapiens, Patient sample of relapsed/refractory AML with trisomy of chromosome #8
Experimental: as §1

MDA-MB -231 = settings: human metastatic breast adenocarcinoma, estrogen, progesterone, and HER2/NEU receptor negative
Experimental: as §1

HL60 RV = settings: Homo sapiens, HL-60, MDR variant of HL60 selected with vincristine
Experimental: as §1

NCEB1 = settings: Human Mantle Cell Lymphoma
Experimental: as §1

MAWI B = settings: Homo sapiens, Patient sample of secondary chronic myelogenous leukemia
Experimental: as §1

HL60 = settings: HL-60, Human Acute Promyelocytic leukemia
Experimental: as §1

HL60 MX2 = settings: Homo sapiens, MDR variant of HL60 selected with mitoxantrone-clone 2
Experimental: as §1

H2122 = settings: NCI-H2122, human lung adenocarcinoma, G12C KRAS mutation, Q16L and C176F P53 mutations
Experimental: as §1

HCC4011 = settings: Human lung adenocarcinoma, L858R EGFR mutation, wild-type KRAS
Experimental: as §1

PAPR = settings: Homo sapiens, Patient sample of relapsed acute myelomonocytic leukemia
Experimental: as §1

A2780 = settings: Human ovarian carcinoma
Experimental: as §1

JAKL = settings: Homo sapiens, Patient sample of CLL with trisomy of chromosome 12 and unmutated Ig heavy chain locus
Experimental: as §1

JAQU = settings: Homo sapiens, Patient sample of relapsed/refractory pre-B cell acute lymphoblastic leukemia
Experimental: as §1

OVCAR3 = settings: OVCAR-3, human ovarian adenocarcinoma
Experimental: as §1

H358 = settings: NCI-H358, Human lung adenocarcinoma, G13C KRAS mutation
Experimental: as §1

TC71 = settings: TC-71, Human Ewing's sarcoma
Experimental: as §1

| Compound | IC50 (MESO47) [µM] | IC50 (HCC827) [µM] | IC50 (DOGO) [µM] | IC50 (H820) [µM] | IC50 (H2030) [µM] | IC50 (GLHU) [µM] | IC50 (RH30) [µM] | IC50 (HPLD1) [µM] | IC50 (H11-18) [µM] | IC50 (H2444) [µM] | IC50 (HTB15) [µM] | IC50 (A549) [µM] | IC50 (MIHA) [µM] | IC50 (SOPA) [µM] | IC50 (SW1736) [µM] | IC50 (H1650) [µM] | IC50 (H1734) [µM] | IC50 (MAWI) [µM] | IC50 (RORI) [µM] | IC50 (MDA-MB -231) [µM] | further results |
| --- | --- | --- | --- | --- | --- | --- | --- | --- | --- | --- | --- | --- | --- | --- | --- | --- | --- | --- | --- | --- | --- |
| CC1OC2CC(O)C1(O)c1c(O)c3c(c(O)c12)C(=O)C1=C(C3=O)[C@H](C)O[C@H]2CC(=O)O[C@@H]12 (some centres unmarked) [Granaticin A, granaticin A] | 0.61 | 0.28 | 0.15 | 0.09 | 0.49 | 0.26 | 0.13 | 0.18 | 0.42 | 0.31 | 0.65 | 0.28 | 0.3 | 0.1 | 0.16 | 0.29 | 0.24 | 0.72 | 1.2 | 0.47 | IC50 (HL60 RV): 0.09 µM; IC50 (NCEB1): 0.33 µM; IC50 (MAWI B): 0.42 µM; IC50 (HL60): 0.14 µM; IC50 (HL60 MX2): 0.11 µM; IC50 (H2122): 1.19 µM; IC50 (HCC4011): 0.14 µM; IC50 (PAPR): 0.99 µM; IC50 (A2780): 0.12 µM; IC50 (JAKL): 0.05 µM; IC50 (JAQU): 0.05 µM; IC50 (OVCAR3): 0.21 µM; IC50 (H358): 0.21 µM; IC50 (TC71): 0.15 µM |
| CC1OC2CC(O[C@H]3CC[C@H](O)[C@H](C)O3)C1(O)c1c(O)c3c(c(O)c12)C(=O)C1=C(C3=O)[C@H](C)O[C@H]2CC(=O)O[C@@H]12 (some centres unmarked) [Granaticin B, granaticin B] | 0.38 | 0.12 | 0.07 | 0.05 | 0.22 | 0.08 | 0.08 | 0.04 | 0.06 | 0.03 | 0.46 | 0.09 | 0.04 | 0.09 | 0.02 | 0.06 | 0.04 | 0.18 | 0.1 | 0.29 | IC50 (HL60 RV): 0.07 µM; IC50 (NCEB1): 0.26 µM; IC50 (MAWI B): 0.16 µM; IC50 (HL60): 0.09 µM; IC50 (HL60 MX2): 0.07 µM; IC50 (H2122): 0.21 µM; IC50 (HCC4011): 0.05 µM; IC50 (PAPR): 0.49 µM; IC50 (A2780): 0.02 µM; IC50 (JAKL): 0.01 µM; IC50 (JAQU): 0.01 µM; IC50 (OVCAR3): 0.11 µM; IC50 (H358): 0.05 µM; IC50 (TC71): 0.09 µM |
